Reference: US20160083424A1, “COMPOSITIONS AND METHODS FOR TARGETING ANTIGEN-PRESENTING CELLS” (OSLO UNIVERSITETSSYKEHUS HF, priority 2013, published 2016)
Read-outs that look alike come from different tables or passages of the source. Blank lines part the entries; values can stand above or below the molecule they belong to. Where no end group is shown, it is not given here.

What was measured:
Monocytes [1] = details: biotin labeled peptide (10 μg), Dynabeads M-280 streptavidin, flow cytometry
Experimental: In these experiments, peripheral blood mononuclear cells were isolated from buffy coats of healthy donors by density gradient centrifugation. […] Subsequently, the cells were washed with the binding buffer to remove unbound peptide and then they were suspended in 100 μl binding buffer. Subsequently, pre-washed Dynabeads M-280 streptavidin (20 μl) were added and the mixtures were incubated for 15 min at room temperature with agitation. After, the mixtures were placed in the separation magnet, during which time the beads and any attached cells are drawn to one side of the tube. Non-attached cells were carefully aspirated off and analyzed by flow cytometry to check the removal of the monocyte fraction (FIG. 15).

iDCs [2] = test system: iDCs
Experimental: Commercially available streptavidin-PE (1/200) was incubated with biotinylated NW peptide or control peptide (1 μg/ml) for 30 min at RT. Then the mixtures were added to DCs growing in Lab-Tek chamber slides (Nalge Nunc International, Naperville, USA) and incubated for 60 min at 4° C. The cells were washed 3 times with medium and incubated at 37° C. for 90 min to allow internalization of bound streptavidin-PE. To visualize the nuclei, Hoechst 33342 (Invitrogen Dynal AS, Oslo, Norway) was added to the cells for 5 min. Subsequently, the cells were fixed with 4% paraformaldehyde, washed and slides were covered with Dako cytomation fluorescent mounting medium followed by epifluorescence microscopy analysis. Confocal images were taken with an AxioVert 200 microscope (Carl Zeiss, Jena, Germany).
The use of the NW peptide to target antigens to DCs was assessed by examining its ability to promote the binding and uptake of streptavidin-PE complexes. For these experiments, streptavidin-PE was pre-incubated with either biotin conjugated NW peptide or biotin conjugated control peptide and then the mixtures were added to iDCs growing in Lab-Tek chamber slides, incubated at 4° C., washed and then transferred at 37° C.

human Gal-3 = assay: Gene silencing by peptide-siRNA conjugates, Western blot; assay type: cell-based; details: iDCs, 48 h incubation
Experimental: Immature DCs were seeded in a 6-well plate at a density of 10^6 cells per well and incubated for 24 h prior to transfection. Then the medium was replaced by fresh X-vivo 15 medium (2 ml/well) containing peptide-siRNA conjugates or free siRNAs. Cells were harvested 48 h after addition of the test molecules and monitored for gene expression by Western blots.
Cells were resuspended in protein extraction buffer (PBS+1% NP-40) supplemented with protease inhibitor cocktail (Sigma-Aldrich Norge, Oslo, Norway) and incubated for 30 min on ice. After centrifugation, the supernatant were collected and protein contents were determined using Bio-Rad protein assay. Equal amounts of protein were resolved by electrophoresis on a 10% sodium dodecyl sulfate (SDS)-polyacrylamide gel and electrotransferred to nitrocellulose membrane. After blocking in 5% milk in TBS-Tween (1%) for 60 min, membranes were probed with primary antibodies against Gal-3 and HRP-conjugated secondary antibody. Immunoreactive proteins were detected using the enhanced chemiluminescence system. To control for protein loading, membranes were stripped and then incubated with β-actin monoclonal antibody.
Because siRNA molecules must be released into the cytoplasm in order to function (Elbashir et al., (2001) Nature 411, 494-498), the data further confirm the internalization of the peptide after binding to DCs.

iDC = assay: Competition of NW phage binding by synthetic peptides; parameters: species or system human
Experimental: (§1) In brief, aliquots of DCs (10^5) were divided into conical 96-well micro-plate, washed with PBS buffer containing 1% FCS, and then incubated with the amplified phages (≈10^9 TU) for 30-60 min on ice. After washing, cells were incubated with biotinylated anti-M13 monoclonal antibody (Abcam) and then with phycoerythrin (PE)-conjugated streptavidin. Competition assays were performed by pre-incubating DCs with different amounts of the peptides for 15 min on ice. Then NW phage (≈10^9 TU) was added and samples incubated for additional 60 min on ice. After washing, bound phages were detected as indicated above. Samples were analyzed by FACSCanto II flow cytometry.
To further investigate the importance of the NW peptide on phage binding, competition experiments were performed using synthetic peptides.

iDCs [3] = assay: Peptide binding and internalization by fluorescence microscopy; assay type: cell-based, human
Experimental: Then the medium was replaced with fresh medium and the cells were incubated with the peptides (5 μg/ml) for 60 min at 37° C. followed by 5 min incubation with Hoechst 33342 (Invitrogen Dynal AS, Oslo, Norway). The cells were washed twice with PBS and fixed with 4% paraformaldehyde for 15 min at 4° C. After washing, slides were covered with Dako cytomation fluorescent mounting medium and then images were taken with either epifluorescence (Leica DM RHC, Leica Microscopy As, Oslo, Norway) or confocal microscopy (Zeiss LSM 510, […]).

mDC = assay: Phenotypic analysis of DCs after peptide incubation; assay type: cell-based, human; details: mDC incubated with peptide (15 μM) for 48 h, flow cytometry
Experimental: Phenotype of DCs was analyzed by direct immunofluorescence staining of cell surface antigens using FITC or PE conjugated antibodies against CD80, CD83, CD86, HLA-DR, CCR7, CD40, and isotype controls. All antibodies were purchased from Dako (Glostrup, Denmark) or BD Biosciences (San Diego, Calif., USA). After staining on ice for 30 min, samples were washed twice and then analyzed by FACSCantoII flow cytometry
(§2) With respect to cancer immunotherapy and active immunization against infectious diseases, targeting moieties should not have a negative impact on DC immunogenic function. To investigate whether the NW peptide can modulate DC phenotype and function, mDC were incubated with the peptide for 48 h and subsequently the expression of CD80, CD83, CD86, and HLADR molecules were analyzed by flow cytometry. […] The ability of mDCs to stimulate T-cell proliferation was assessed in a mixed leukocyte reaction (MLR), a hallmark of DC function. […] The NW-peptide had no major negative effects on DC phenotype and function.

Monocytes [4] = assay: Peptide binding by flow cytometry; parameters: species or system human; details: compared with dendritic cells
Experimental: (§3) The cells were seeded onto 24-well plate (3×10^5/well/0.5 ml) in X-vivo 15 medium and incubated overnight at 37° C. Subsequently, they were incubated with 6IAF-conjugated peptides (5 μg/ml) for 30 min at 37° C., gently scraped, washed 3 times and then analyzed by flow cytometry. Binding was also performed at 4° C.

iDCs [5] = assay: Peptide binding by flow cytometry; parameters: species or system human; details: 4° C. and 37° C.
Experimental: as §3

T cells [6] = assay: Peptide binding by flow cytometry; parameters: species or system human
Experimental: as §3

NK cells [7] = assay: Peptide binding by flow cytometry; parameters: species or system human
Experimental: as §3

Blood pDCs [8] = assay: Peptide binding by flow cytometry; parameters: species or system human
Experimental: as §3

Blood myeloid DCs [9] = assay: Peptide binding by flow cytometry; parameters: species or system human
Experimental: as §3

B cells [10] = assay: Peptide binding by flow cytometry; parameters: species or system human
Experimental: as §3

mDCs [11] = assay: Mixed leukocyte reaction (MLR); assay type: cell-based, human; details: peptide-treated vs untreated mDCs
Experimental: as §2

Monocytes [12] = assay: Competition of NW phage binding by NW peptide and its mutant peptides; parameters: species or system human
Experimental: as §1
To uncover the contribution of individual side chains and identify which amino acids are responsible for the NW peptide binding to monocytes and dendritic cells, alanine scanning was performed. Derivatives of the NW peptide were synthesized with exchange of each amino acid by alanine (FIG. 11A). These peptide derivatives were used to compete with the NW phage binding to monocytes. For each peptide, four concentrations were tested. Bound phage particles were detected with the use of biotin conjugated anti-M13 antibody and PE-conjugated streptavidin. The NW peptide (WT) competed effectively with the phage binding to monocytes with an IC50 of approximately 0.5 uM. The replacement of tryptophan (W) at position 2, 6, or 12 by a single alanine abolished the binding. Indeed, no significant competition with the phage binding was seen even at high peptide concentrations (C4=20 uM). Similarly, replacement of leucine (L) at position 4 or 7 by alanine inhibited the peptide binding (FIG. 11B).

DCs = assay: Fluorescence microscopy analysis of phage binding and internalization; assay type: cell-based, human; details: 37° C. for 90 min
Experimental: DCs were incubated with biotinylated phages at 4° C. for 30 min. After washing, the cells were incubated with streptavidin-PE. […] Hoechst 33342 dye was added to the cells for 5 min and then the cells were washed, fixed with 4% paraformaldehyde, and covered with Dako cytomation fluorescent mounting medium and analyzed with epifluorescence microscopy. Confocal images were obtained using an AxioVert 200 microscope (Carl Zeiss, Jena, Germany).

THP-1 = assay: Phage binding by flow cytometry; details: human monocyte cell line THP-1
Experimental: as §1

Monocytes [13] = assay: Phage binding by flow cytometry; parameters: species or system human
Experimental: as §1

iDCs [14] = assay: Phage binding by flow cytometry; parameters: species or system human
Experimental: as §1

T cells [15] = assay: Phage binding by flow cytometry; parameters: species or system human
Experimental: as §1

NK cells [16] = assay: Phage binding by flow cytometry; parameters: species or system human
Experimental: as §1

Blood pDCs [17] = assay: Phage binding by flow cytometry; parameters: species or system human
Experimental: as §1

Blood myeloid DCs [18] = assay: Phage binding by flow cytometry; parameters: species or system human
Experimental: as §1

B cells [19] = assay: Phage binding by flow cytometry; parameters: species or system human
Experimental: as §1

mDCs [20] = assay: Phage binding by flow cytometry; parameters: species or system human
Experimental: as §1

[21] = test system: Cancer cell lines (MCF-7, MDA-MB 231, SW480, REH); assay: Phage binding by flow cytometry; parameters: species or system human; details: all tested cancer cell lines
Experimental: as §1

[22] = target: NW peptide receptor (human); assay: competition with NW phage on monocytes, flow cytometry
[23] = target: NW peptide receptor (human); assay: competition with NW phage on monocytes, flow cytometry; C3 = 8 µM peptide

Molecule: NWYLPWLGTNDWGGGK-Biotin [NW-Biotin peptide]
removal of the monocyte fraction from PBMC (Monocytes [1]): most, if not all monocyte population were removed | binding of streptavidin-PE complexes to DCs (iDCs [2]; biotinylated peptide pre-incubated with streptavidin-PE, 4° C.): mediated the binding of streptavidin-PE complexes to DCs | internalization of streptavidin-PE (iDCs [2]; confocal microscopy, after transfer to 37° C.): clear internalization and cellular localization of streptavidin-PE molecules

Molecule: NWYLPWLGTNDWC [NW peptide, NWYLPWLGTNDWC]
Gal-3 gene silencing (human Gal-3): did not induce any detectable gene silencing | inhibition of the phage binding to iDC by synthetic peptides (iDC): effectively inhibited the phage binding to iDC in a concentration-dependent manner | cell staining by epifluorescence microscopy (iDCs [3]; 6-IAF-conjugated peptide): strong cell staining | internalization by iDCs (confocal microscopy) (iDCs [3]; 37° C.): efficiently internalized by iDCs | expression of CD80, CD83, CD86, and HLADR molecules (mDC): None of the analyzed markers were significantly affected | peptide binding (Monocytes [4]): bound as strongly to monocytes as to dendritic cells | binding of 6-IAF-conjugated peptides to iDCs (iDCs [5]): strong binding both at 4 °C and 37 °C | peptide binding (T cells [6]): did not bind | peptide binding (NK cells [7]): did not bind | peptide binding (Blood pDCs [8]; Blood pDCs): ++++ (Binding >80-100%: ++++) | peptide binding (Blood pDCs [8]; CD303+ plasmacytoid DCs): bound efficiently | peptide binding (Blood pDCs [8]; CD303+ plasmacytoid DCs, listed as synthetic peptide): bound | peptide binding (Blood myeloid DCs [9]; Blood myeloid DCs): ++++ (Binding >80-100%: ++++) | peptide binding (Blood myeloid DCs [9]; blood CD1c+ myeloid DCs): bound efficiently | peptide binding (Blood myeloid DCs [9]; blood CD1c+ myeloid DCs, listed as synthetic peptide): bound | peptide binding (B cells [10]): did not bind | T-cell proliferation in MLR (mDCs [11]): comparable T-cell proliferation | IC50 (Monocytes [12]; dose-dependent inhibition, peptide concentrations 0.4, 2, 8, and 20 μM, read-out: inhibition of the NW phage binding, IC50): 500 nM | IC50 (Monocytes [12]; monocytes, read-out: competition with the phage binding to monocytes, IC50): ~500 nM

Molecule: NWYLPWLGTNDW [DC2]
internalization of the phage particles into DCs (DCs): able to mediate the internalization of the phage particles into DCs | phage binding (THP-1): did not bind | Phage Binding (Monocytes [13]): ++++ (Binding >80-100%: ++++) | phage binding (Monocytes [13]): strong binding | phage binding after trypsine treatment of DCs (iDCs [14]; Trypsine treatment of DCs, data not shown): eliminated phage binding | Binding (iDCs [14]; binding of the phage clones to iDC, flow cytometry): ++++ (Binding >80-100%: ++++) | phage binding (iDCs [14]; iDC): strong binding | Phage Binding (iDCs [14]; iDCs): ++++ (Binding >80-100%: ++++) | phage binding (T cells [15]): did not bind | phage binding (NK cells [16]): did not bind | Phage Binding (Blood pDCs [17]; Blood pDCs): ++++ (Binding >80-100%: ++++) | phage binding (Blood pDCs [17]; CD303+ plasmacytoid DCs): bound | Phage Binding (Blood myeloid DCs [18]; Blood myeloid DCs): ++++ (Binding >80-100%: ++++) | phage binding (Blood myeloid DCs [18]; blood CD1c+ myeloid DCs): bound | phage binding (B cells [19]): did not bind | Phage Binding (mDCs [20]): ++++ (Binding >80-100%: ++++) | phage binding (mDCs [20]): strong binding | phage binding [21]: did not bind

fold reduction in IC50 against the NW peptide [22]: 20 fold
Molecule: NWYLPWLGTW [NW peptide with deletion of N10D11]

mean fluorescence of bound NW phage at C3 concentration [23]: 250
Molecule: NWYLPWLGTAAW [N10D11 double mutant]
